Reference: patent US20150075790A1, “OILFIELD BIOCIDE” (SCHLUMBERGER TECHNOLOGY CORPORATION, priority 2013, published 2015)

How the values were obtained:
Type in all cases: physicochemical
[1] = Breaking schedule of crosslinked guar gel with oxidizer (breaker), viscosity at 66° C.; details: shear rate 100 sec^-1, 66° C. (150° F.)
Procedure: Two samples were evaluated to determine the impact of the MGO on the breaking schedule of a guar solution. The viscosity of each sample was measured at a shear rate of 100 sec^−1 while aging at 66° C. (150° F.) in the presence of an oxidizer (a breaker) to determine the effect 2-oxo-aldehyde such as MGO has on gel stability. The data is shown graphically in FIG. 4.

[2] = test system: bacteria or other biological agents known to degrade such fluids; assay: Viscosity of guar fluid after aging at 25° C. in a non-sterile environment (biocidal activity on a guar system); details: relatively dilute concentrations; period of at least 6 days
Excerpt: For purposes herein, aging of a fluid (e.g., a solution or mixture) in a non-sterile environment for purposes of determining the inhibition of biological degradation of the fluid may include the steps of preparing and characterizing a fluid in a non-sterile environment followed by allowing the fluid to age in the non-sterile environment (or non-sterile container) which is, or which has been in fluid communication with an external environment such that the fluid has been exposed to the ambient environment which inherently contains bacteria or other biological agents known to degrade such fluids at room temperature (i.e., 25° C.), followed by characterizing the aged fluid in essentially the same way under the same conditions using the same method utilized to characterize the fluid initially. […] The biocidal activity of a 2-oxo-aldehyde having 3 or more carbon atoms such as methylglyoxal on a guar system was evaluated. […] Samples were maintained at room temperature and their viscosities were measured directly after their preparation (in a non-sterile environment) and then again determined after the different periods of time aging at 25° C. in a non-sterile environment as indicated. The viscosity of sample B was determined initially and then again after 1, 2, 3, and 6 days of aging at 25° C. in a non-sterile environment, i.e., in a covered beaker on a lab bench. […]

[3] = test system: biological degradation of the concentrated guar fluids; assay: Viscosity of highly concentrated guar fluids (water in water emulsion) after aging and dilution; details: ~200 ppt guar
Procedure: The efficacy of 2-oxo-aldehyde such as MGO as a biocide was investigated on highly concentrated guar fluids (˜200 ppt) produced as a water in water emulsion. Comparative sample G and sample H were prepared without and with MGO respectively. After dilution of the concentrated fluids (1 part of sample to 4 parts of water) their rheological properties were measured after 0, 1, 2, 3, and 4 days. The data are shown graphically in FIG. 5. […] After three days of aging at 25° C., comparative sample G (without MGO) presents a much lower viscosity than its initial value at day 0, i.e. the fluid in comparative sample G has been degraded.

[4] = Vortex closure time of boron-crosslinked guar solution, initially and after aging
Procedure: The effects of the biocide on cross linking were evaluated. It is known that chemical contamination may have a detrimental impact on the cross linking of guar and other polymers. The impact of 2-oxo-aldehyde such as MGO on guar crosslinking was evaluated using the vortex closure time of a solution of guar. Vortex closure time is determined by charging a portion of the gel in a blender and measuring the time required for the vortex produced upon initiation of mixing the solution in the blender to close. […] In other words, a non-crosslinked or minimally crosslinked mixture with have an infinite vortex closure time. The higher the level of crosslinking, the shorter the vortex closure time once mixing is initiated.
A comparative sample E and a sample F were prepared by mixing 0.5 g of guar in 99.5 g water and mixing in the blender. Sample F further included 0.4 g MGO solution (0.16 g of MGO). No vortex closure occurred while mixing the uncrosslinked samples. Next, an amount of a Boron based crosslinking agent was added to each of the mixing samples and the initial vortex closure time was measured as shown in Table 4. The vortex closure time was then measured after 4 days of aging at room temperature (25° C.) in a non-sterile environment, and then again after 6 days of aging at 25° C. […] The data also confirm that biological degradation has a pronounced effect on cross-linking.

CC(=O)C=O [MGO, methylglyoxal]
Impact on the breaking schedule of a guar gel (FIG. 4) [1]: does not have a significant impact on the breaking schedule
Effectiveness in reducing biological degradation of the guar fluid [2]: effective in reducing biological degradation
Prevention of biological degradation of concentrated guar fluids [3]: has prevented biological degradation
Impact on the vortex closure time ([4]; 160 mg/L (0.4 gpt), even after several days): does not have any impact on the vortex closure time
Interference with crosslinking of the polymer ([4]; boron based crosslinking agent, guar): does not prevent or interfere with the crosslinking
